Experimental data reported in ChEMBL document CHEMBL2331529, “Design and Synthesis of Potent Bivalent Peptide Agonists Targeting the EphA2 Receptor” (ACS Med Chem Lett, 2013).
The source made the active and inactive calls. The calls are words filed in the database; no cut-off is given here.

What was measured:
[1] = biological target: T1, Ephrin type-B receptor 2 (Homo sapiens) (UniProt P29323); test: Agonist activity at IgG1 Fc region fused-immobilized EphB2 (unknown origin) assessed as inhibition of EphB2/ephrin-B2 AP interaction at 10 uM incubated for 3 hrs by ELISA
T1 sequence (whole entry): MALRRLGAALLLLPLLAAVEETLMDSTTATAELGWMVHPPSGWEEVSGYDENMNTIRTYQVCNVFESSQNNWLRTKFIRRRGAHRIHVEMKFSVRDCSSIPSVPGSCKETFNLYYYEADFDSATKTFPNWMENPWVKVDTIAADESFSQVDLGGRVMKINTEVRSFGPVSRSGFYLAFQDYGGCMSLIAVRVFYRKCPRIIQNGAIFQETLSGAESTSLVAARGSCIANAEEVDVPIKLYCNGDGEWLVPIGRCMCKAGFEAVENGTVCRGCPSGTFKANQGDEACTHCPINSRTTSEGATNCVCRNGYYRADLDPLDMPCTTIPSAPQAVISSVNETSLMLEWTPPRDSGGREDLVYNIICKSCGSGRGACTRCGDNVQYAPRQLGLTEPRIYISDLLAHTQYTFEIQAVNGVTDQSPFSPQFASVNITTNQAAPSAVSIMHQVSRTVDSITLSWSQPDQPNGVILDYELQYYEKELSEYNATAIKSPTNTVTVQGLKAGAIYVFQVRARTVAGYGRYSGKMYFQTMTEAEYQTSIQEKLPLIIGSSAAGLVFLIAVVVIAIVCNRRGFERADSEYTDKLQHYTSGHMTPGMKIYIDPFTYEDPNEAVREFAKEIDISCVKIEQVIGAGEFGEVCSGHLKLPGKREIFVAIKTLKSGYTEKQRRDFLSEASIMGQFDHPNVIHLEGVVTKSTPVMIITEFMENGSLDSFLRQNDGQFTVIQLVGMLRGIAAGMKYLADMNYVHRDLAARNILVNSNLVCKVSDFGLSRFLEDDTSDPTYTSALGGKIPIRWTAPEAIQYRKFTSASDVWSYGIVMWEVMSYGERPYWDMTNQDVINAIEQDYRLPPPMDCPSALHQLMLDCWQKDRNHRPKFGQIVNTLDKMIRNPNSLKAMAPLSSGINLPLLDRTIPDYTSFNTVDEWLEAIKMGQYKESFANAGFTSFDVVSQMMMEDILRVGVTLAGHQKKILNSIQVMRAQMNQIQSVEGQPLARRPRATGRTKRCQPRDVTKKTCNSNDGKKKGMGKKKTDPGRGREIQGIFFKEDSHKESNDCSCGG

[2] = biological target: Ephrin type-A receptor 4 (Homo sapiens) (UniProt P54764); test: Agonist activity at IgG1 Fc region fused-immobilized EphA4 (unknown origin) assessed as inhibition of EphA4/ephrin-A5 AP interaction at 10 uM incubated for 3 hrs by ELISA
Ephrin type-A receptor 2 = Ephrin type-A receptor 2 (Homo sapiens, UniProt P29317); test: Agonist activity at IgG1 Fc region fused-immobilized EphA2 ectodomain (unknown origin) assessed as inhibition of EphA2/ephrin-A5 AP interaction incubated for 3 hrs by ELISA
Chain of Ephrin type-A receptor 2 (P29317 whole entry, the tested form may be a part): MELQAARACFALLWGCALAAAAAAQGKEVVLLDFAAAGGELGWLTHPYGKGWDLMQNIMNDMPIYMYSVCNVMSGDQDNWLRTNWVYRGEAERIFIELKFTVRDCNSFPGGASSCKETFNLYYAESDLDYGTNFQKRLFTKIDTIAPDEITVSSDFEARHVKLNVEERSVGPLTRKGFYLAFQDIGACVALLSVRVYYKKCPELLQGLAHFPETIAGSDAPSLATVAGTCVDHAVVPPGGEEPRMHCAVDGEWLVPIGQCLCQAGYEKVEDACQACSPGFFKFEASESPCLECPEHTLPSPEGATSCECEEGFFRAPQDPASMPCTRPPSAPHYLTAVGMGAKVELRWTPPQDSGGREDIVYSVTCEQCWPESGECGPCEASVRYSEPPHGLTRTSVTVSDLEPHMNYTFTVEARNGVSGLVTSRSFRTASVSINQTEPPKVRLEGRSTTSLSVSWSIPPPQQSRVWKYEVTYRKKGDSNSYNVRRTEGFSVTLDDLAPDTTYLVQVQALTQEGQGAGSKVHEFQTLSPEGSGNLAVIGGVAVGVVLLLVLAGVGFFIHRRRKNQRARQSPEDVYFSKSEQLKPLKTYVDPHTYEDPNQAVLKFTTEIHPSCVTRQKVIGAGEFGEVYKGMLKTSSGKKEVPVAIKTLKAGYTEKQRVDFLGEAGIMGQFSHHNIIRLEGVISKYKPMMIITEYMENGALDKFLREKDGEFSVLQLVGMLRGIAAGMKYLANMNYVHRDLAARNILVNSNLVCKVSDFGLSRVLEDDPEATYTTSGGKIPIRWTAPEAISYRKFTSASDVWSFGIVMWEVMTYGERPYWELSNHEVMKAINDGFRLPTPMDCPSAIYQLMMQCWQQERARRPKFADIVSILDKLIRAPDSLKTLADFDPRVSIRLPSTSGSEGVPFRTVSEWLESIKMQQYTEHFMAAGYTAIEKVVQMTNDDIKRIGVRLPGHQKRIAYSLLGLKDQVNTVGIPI

Chain of Ephrin type-A receptor 4 (Homo sapiens) (P54764 whole entry, the tested form may be a part): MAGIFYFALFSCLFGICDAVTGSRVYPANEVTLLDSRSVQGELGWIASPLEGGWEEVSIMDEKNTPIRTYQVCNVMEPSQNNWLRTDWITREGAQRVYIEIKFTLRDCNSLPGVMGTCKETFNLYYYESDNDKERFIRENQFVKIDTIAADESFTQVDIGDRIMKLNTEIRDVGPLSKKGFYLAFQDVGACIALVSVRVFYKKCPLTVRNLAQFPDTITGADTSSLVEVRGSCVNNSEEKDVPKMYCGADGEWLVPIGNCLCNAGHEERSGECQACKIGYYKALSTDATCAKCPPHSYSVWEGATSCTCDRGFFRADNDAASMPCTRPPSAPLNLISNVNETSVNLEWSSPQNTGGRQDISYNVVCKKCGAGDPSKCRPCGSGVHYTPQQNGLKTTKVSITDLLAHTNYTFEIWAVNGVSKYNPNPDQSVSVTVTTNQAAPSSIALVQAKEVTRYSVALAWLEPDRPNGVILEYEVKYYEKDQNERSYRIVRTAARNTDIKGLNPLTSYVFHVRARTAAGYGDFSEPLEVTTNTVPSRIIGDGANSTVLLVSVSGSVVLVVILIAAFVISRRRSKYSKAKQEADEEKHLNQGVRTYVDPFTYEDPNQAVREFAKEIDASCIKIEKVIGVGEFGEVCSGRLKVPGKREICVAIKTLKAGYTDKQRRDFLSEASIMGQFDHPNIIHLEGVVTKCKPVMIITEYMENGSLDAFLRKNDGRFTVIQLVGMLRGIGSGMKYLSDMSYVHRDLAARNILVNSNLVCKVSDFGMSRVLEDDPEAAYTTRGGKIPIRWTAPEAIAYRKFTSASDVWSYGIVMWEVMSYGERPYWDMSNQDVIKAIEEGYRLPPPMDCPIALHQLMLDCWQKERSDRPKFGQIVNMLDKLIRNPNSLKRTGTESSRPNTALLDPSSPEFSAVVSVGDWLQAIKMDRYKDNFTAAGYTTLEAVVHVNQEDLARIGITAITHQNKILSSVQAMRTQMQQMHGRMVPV

Compound	inhibition [1]	inhibition [2]	IC50 (Ephrin type-A receptor 2) [µM]
CC(C)C[C@H](NC(=O)[C@H](C)NC(=O)[C@H](Cc1ccc(O)cc1)NC(=O)[C@@H]1CCCN1C(=O)CNC(=O)[C@H](C)NC(=O)[C@@H](NC(=O)[C@H](CO)NC(=O)[C@H](Cc1ccc(O)cc1)NC(=O)[C@H](CCCNC(=N)N)NC(=O)[C@H](CCCCNC(=O)CCCCCN)NC(=O)[C@H](CCCNC(=N)N)NC(=O)[C@H](Cc1ccc(O)cc1)NC(=O)[C@H](CO)NC(=O)[C@@H](NC(=O)[C@H](C)NC(=O)CNC(=O)[C@@H]1CCCN1C(=O)[C@H](Cc1ccc(O)cc1)NC(=O)[C@H](C)NC(=O)[C@H](CC(C)C)NC(=O)[C@H](Cc1c[nH]c2ccccc12)NC(=O)[C@@H](N)CO)C(C)C)C(C)C)C(=O)N[C@@H](Cc1c[nH]c2ccccc12)C(=O)N[C@@H](CO)C(=O)O	Active	Active	
H-SWLSYPGAVSYR-OH			> 100

Further lines, results first:

inhibition [1]	inhibition [2]	IC50 (Ephrin type-A receptor 2) [µM]	Compound
		≥ 100	H-SALAYPGAVSYR-OH
		≥ 100	H-SWLAAPGAVSYR-OH
		≥ 100	H-SWLAYAGAVSYR-OH
